Patent US4806532A, “Inhibition of epithelial phosphate transport” (Mayo Foundation for Medical Education and Research, priority 1985, dated 1989)
Structures can show the parent of a compound that is named as a salt.

What was measured:
Na-Pi cotransporter [1] = target: T1, Na-Pi cotransporter (Mus musculus, UniProt Q60825); assay: Na+-gradient-dependent 32Pi uptake by renal BBMV, mouse; assay type: biochemical
T1 construct: were prepared from renal cortices of mongrel dogs, albino mice and New Zealand albino rabbits; from tissue; host or cells: albino mouse renal cortex, brush border membrane vesicles
T1 sequence (Q60825 1-637): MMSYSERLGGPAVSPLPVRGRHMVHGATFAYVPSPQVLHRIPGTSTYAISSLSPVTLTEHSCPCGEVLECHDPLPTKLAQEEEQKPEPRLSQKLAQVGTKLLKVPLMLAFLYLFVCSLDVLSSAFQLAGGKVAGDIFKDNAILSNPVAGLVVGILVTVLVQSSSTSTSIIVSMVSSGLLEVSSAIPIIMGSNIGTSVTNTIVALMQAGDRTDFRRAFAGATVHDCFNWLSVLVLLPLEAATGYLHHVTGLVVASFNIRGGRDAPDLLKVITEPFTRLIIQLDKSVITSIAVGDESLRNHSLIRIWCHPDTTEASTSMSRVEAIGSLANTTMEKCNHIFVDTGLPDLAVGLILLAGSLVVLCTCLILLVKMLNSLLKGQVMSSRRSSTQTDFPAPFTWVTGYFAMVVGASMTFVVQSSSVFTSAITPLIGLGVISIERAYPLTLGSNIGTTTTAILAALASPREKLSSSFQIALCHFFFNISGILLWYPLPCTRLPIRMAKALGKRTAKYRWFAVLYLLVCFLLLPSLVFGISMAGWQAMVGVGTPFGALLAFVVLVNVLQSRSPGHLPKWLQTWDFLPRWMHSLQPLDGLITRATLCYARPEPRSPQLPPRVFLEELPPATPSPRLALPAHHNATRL
Description: (§1) The brush border membrane vesicles (BBMV) were prepared from renal cortical tissue of adult male Sprague-Dawley rats of an average body weight of about 220 grams. Rats were fed ad libitum standard rat chow containing 0.7% Pi and had free access to distilled water. Rats were sacrificed under anesthesia and dissected renal cortical tissue was used for preparation of BBMV fraction by the divalent cation-precipitation procedure, employed and described in detail in J. Clin. Invest., 67, 1347 (1981) and J. Biol. Chem., 258, 5695 (1983), with the following modifications: (a) MgCl2 instead of CaCl2 was added to crude homogenate (final concentration 10 mM MgCl2) to precipitate membranes other than BBMV; (b) in the final step, BBMV were washed and equilibrated in a medium of pH=7.5, instead of pH=8.5. The enrichment and specific activities of typical BBM enzymes alkaline phosphatase (APases), γ-glutyamyl transferase (γ-GTT), leucineaminopeptidase (LAP) and maltase with use of these modifications were similar as in BBMV fractions prepared in our previous studies. As a final step in the preparative procedure, the BBMV fraction was washed and resuspended in a medium containing 300 mM mannitol and 5 mM Tris-HEPES adjusted to pH=t.5, referred to as "MTH-medium," unless specified otherwise. The analogous BBMV fractions, using the same procedure, were prepared from renal cortices of mongrel dogs, albino mice and New Zealand albino rabbits.
(§2) The BBMV uptake of ^32 Pi, D-[^3 H]-glucose, L-[^3 H]-proline and ^22 Na^+ was measured by means of a rapid filtration technique, as described in J. Clin. Invest., 67, 1347 (1981) and Am. J. Physiol., 246, F133-F139 (1984). Also, unless specified otherwise, the medium for the solute uptake assay consisted of following compounds (in final concentrations): 100 mM mannitol, 100 mM NaCl (or 100 mM KC1) and 5 mM Tris-HEPES (pH=7.5) and eitehr 0.1 mM K2 H^32 PO4, or 0.05 mM D-[^3 H]-glucose, or 0.025 mM L-[^3 H]-proline. IN the ^22 Na^+ uptake studies, the assay medium contained 100 mM ^22 NaCl (^22 NaCl about […] per tube), 100 mM mannitol and 5 mM Tris-HEPES (pH 7.5).
(§3) In most experiments, the Na^+ -gradient-dependent ^32 Pi uptake in the concentrative "uphill" phase was measured at 20 seconds period. Since Na^+ -independent Pi uptake in this time period was quantitatively minor component (<5%) of the Na^+ -gradient-dependent Pi uptake, it was not routinely subtracted.

Na-Pi cotransporter [2] = target: T2, Na-Pi cotransporter (Oryctolagus cuniculus, UniProt Q28620); assay: Na+-gradient-dependent 32Pi uptake by renal BBMV, rabbit; assay type: biochemical
T2 construct: were prepared from renal cortices of mongrel dogs, albino mice and New Zealand albino rabbits; from tissue; host or cells: New Zealand albino rabbit renal cortex, brush border membrane vesicles
T2 sequence (Q28620 1-642): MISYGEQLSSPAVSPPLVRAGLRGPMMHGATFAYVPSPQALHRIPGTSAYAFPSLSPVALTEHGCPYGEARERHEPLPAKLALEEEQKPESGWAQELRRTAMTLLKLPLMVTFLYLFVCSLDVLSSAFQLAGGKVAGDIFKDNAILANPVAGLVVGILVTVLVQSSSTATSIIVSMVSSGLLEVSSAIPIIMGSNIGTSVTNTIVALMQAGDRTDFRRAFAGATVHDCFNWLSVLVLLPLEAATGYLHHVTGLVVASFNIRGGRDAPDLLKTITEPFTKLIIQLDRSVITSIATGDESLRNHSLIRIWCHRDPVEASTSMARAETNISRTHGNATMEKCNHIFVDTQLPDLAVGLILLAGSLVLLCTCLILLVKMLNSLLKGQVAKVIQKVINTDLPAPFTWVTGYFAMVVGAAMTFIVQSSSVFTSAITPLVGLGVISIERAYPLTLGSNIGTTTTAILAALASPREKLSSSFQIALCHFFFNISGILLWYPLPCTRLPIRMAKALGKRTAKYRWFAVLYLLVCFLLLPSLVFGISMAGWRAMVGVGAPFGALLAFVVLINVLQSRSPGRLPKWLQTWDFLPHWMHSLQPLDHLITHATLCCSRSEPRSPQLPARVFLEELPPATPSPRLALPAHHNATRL
Description: as §1, §2, §3

[3] = 20 s, 1 mM TPFA, read-out: percent decrease of 20 sec 32Pi-uptake relative to control value
[4] = 20 s, 5 mM TPFA, read-out: percent decrease of 20 sec 32Pi-uptake relative to control value

For `O=C(O)P(=O)(O)O` [TPFA, Phosphonoformic acid, trisodium salt hexahydrate], the “32Pi-uptake 120 min” value (Na-Pi cotransporter [1]; 1 mM TPFA, control 368 ± 7) was 390 ± 74 pmoles Pi/mg protein/time, the “32Pi-uptake 20 sec” value (Na-Pi cotransporter [1]; 1 mM TPFA, control 824 ± 9) was 299 ± 8 pmoles Pi/mg protein/time and the “32Pi-uptake 20 sec” value (Na-Pi cotransporter [1]; 5 mM TPFA) was 97 ± 7 pmoles Pi/mg protein/time. For the same compound, the “32Pi-uptake 120 min” value (Na-Pi cotransporter [1]; 5 mM TPFA) was 404 ± 12 pmoles Pi/mg protein/time, the inhibition at 1000 µM (Na-Pi cotransporter [1]; [3]) was 63.7% and the inhibition at 5000 µM (Na-Pi cotransporter [1]; [4]) was 88.2%. For the same compound, the “32Pi-uptake 120 min” value (Na-Pi cotransporter [2]; 1 mM TPFA, control 551 ± 15) was 532 ± 19 pmoles Pi/mg protein/time, the “32Pi-uptake 20 sec” value (Na-Pi cotransporter [2]; 1 mM TPFA, control 768 ± 7) was 279 ± 4 pmoles Pi/mg protein/time and the “32Pi-uptake 20 sec” value (Na-Pi cotransporter [2]; 5 mM TPFA) was 107 ± 5 pmoles Pi/mg protein/time. The “32Pi-uptake 120 min” value (Na-Pi cotransporter [2]; 5 mM TPFA) was 549 ± 11 pmoles Pi/mg protein/time, the inhibition at 1000 µM (Na-Pi cotransporter [2]; [3]) was 63.7% and the inhibition at 5000 µM (Na-Pi cotransporter [2]; [4]) was 86.1%.
